Activity calls are given as the source filed them. The rule behind the calls is not given here.
Experiments:
[1] = Cytotoxicity against mouse P19 derived neurons assessed as cell viability at 100 nM after 18 hrs by XTT assay relative to control; assay type: toxicity; conditions: read-out: Activity
[2] = Cytotoxicity against mouse P19 derived neurons assessed as cell viability at 10000 nM after 18 hrs by XTT assay relative to control; assay type: toxicity; conditions: read-out: Activity
P19 [3] = test: Neuritogenic activity in mouse P19 derived neurons assessed as increase in neurite length at 1 nM after 18 hrs by phase contrast microscopic method relative to control; assay type: functional
Beta-secretase 1 [4] = molecular target: T1, Beta-secretase 1 (Homo sapiens, UniProt P56817); test: Inhibition of BACE1 (unknown origin) using beta-secretase substrate 4 after 30 mins by fluorescence spectrophotometric method
[5] = Cytotoxicity against mouse P19 derived neurons assessed as cell viability at 1 nM after 18 hrs by XTT assay relative to control; assay type: toxicity; conditions: read-out: Activity
[6] = Cytotoxicity against mouse P19 derived neurons assessed as cell viability at 10 nM after 18 hrs by XTT assay relative to control; assay type: toxicity; conditions: read-out: Activity
P19 [7] = test: Neuritogenic activity in mouse P19 derived neurons assessed as increase in neurite number at 1 nM after 18 hrs by phase contrast microscopic method relative to control; assay type: functional
[8] = molecular target: T2, Amyloid-beta precursor protein (Homo sapiens, UniProt P05067); test: Inhibition of human amyloid beta (1 to 42) aggregation at 100 uM incubated for 48 hrs under dark condition by ThT fluorescence assay relative to control
[9] = Antioxidant activity assessed as inhibition of DPPH radical at 100 uM incubated for 30 mins under dark condition relative to control; assay type: functional
Beta-secretase 1 [10] = molecular target: T1, Beta-secretase 1; test: Inhibition of BACE1 (unknown origin) at 25 uM using beta-secretase substrate 4 after 30 mins by fluorescence spectrophotometric method relative to control
[11] = Cytotoxicity against mouse P19 derived neurons assessed as cell viability at 1000 nM after 18 hrs by XTT assay relative to control; assay type: toxicity; conditions: read-out: Activity
[12] = molecular target: T2, Amyloid-beta precursor protein; test: Inhibition of human amyloid beta (1 to 42) aggregation incubated for 48 hrs under dark condition by ThT fluorescence assay
SH-SY5Y = test: Neuroprotective activity against aggregated amyloid beta-induced toxicity in human SH-SY5Y cells assessed as increase in cell viability at 1 to 10 uM preincubated for 2 hrs followed by aggregated amyloid beta addition measured after 24 hrs by MTT assay; assay type: functional, cell-based
[13] = molecular target: T2, Amyloid-beta precursor protein; test: Inhibition of amyloid beta (1 to 42) aggregation (unknown origin)

T1 sequence (P56817 whole entry): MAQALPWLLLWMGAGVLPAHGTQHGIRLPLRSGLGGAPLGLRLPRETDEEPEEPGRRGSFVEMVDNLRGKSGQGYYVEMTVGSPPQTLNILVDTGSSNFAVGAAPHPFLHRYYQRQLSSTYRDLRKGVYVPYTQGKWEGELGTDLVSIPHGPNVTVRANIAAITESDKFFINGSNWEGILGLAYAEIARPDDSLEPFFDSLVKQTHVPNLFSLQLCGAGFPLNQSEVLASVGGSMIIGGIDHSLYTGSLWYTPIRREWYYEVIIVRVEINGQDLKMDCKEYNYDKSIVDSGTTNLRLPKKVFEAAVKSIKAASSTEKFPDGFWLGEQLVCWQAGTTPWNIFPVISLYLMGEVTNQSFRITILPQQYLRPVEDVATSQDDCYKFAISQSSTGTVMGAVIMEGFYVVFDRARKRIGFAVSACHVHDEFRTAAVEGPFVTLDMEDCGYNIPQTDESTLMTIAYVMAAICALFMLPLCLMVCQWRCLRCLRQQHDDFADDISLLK
T2 sequence (P05067 whole entry): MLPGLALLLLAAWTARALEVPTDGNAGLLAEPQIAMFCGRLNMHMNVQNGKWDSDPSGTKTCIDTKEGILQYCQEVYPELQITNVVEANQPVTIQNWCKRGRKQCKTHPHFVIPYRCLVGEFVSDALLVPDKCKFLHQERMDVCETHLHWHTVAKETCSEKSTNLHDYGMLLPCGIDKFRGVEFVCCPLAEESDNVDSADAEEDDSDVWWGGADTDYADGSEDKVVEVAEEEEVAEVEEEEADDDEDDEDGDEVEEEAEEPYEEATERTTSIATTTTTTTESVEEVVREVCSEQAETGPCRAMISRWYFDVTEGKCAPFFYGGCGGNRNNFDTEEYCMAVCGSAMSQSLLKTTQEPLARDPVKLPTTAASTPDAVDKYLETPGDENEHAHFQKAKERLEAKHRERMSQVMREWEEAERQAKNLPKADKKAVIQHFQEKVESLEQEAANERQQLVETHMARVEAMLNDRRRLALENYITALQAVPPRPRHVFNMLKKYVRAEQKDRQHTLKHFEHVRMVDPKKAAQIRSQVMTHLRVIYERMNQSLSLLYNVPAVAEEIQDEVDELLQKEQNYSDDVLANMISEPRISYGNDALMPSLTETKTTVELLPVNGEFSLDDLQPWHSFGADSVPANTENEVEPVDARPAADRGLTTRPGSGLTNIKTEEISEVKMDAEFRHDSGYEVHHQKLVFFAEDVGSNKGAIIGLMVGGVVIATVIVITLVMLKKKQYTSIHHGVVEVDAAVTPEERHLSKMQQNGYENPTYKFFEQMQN

SMILES | viability at 18 h, 0.1 µM [1] [%] | viability at 18 h, 10 µM [2] [%] | Activity (P19 [3]) [%] | IC50 (Beta-secretase 1 [4]) [µM] | viability at 18 h, 0.001 µM [5] [%] | viability at 18 h, 0.01 µM [6] [%] | Activity (P19 [7]) [%] | inhibition [8] [%] | inhibition [9] [%] | inhibition (Beta-secretase 1 [10]) [%] | viability at 18 h, 1 µM [11] [%] | IC50 [12] [µM] | Activity (SH-SY5Y) | IC50 [13] [µM]
O=C(/C=C/c1ccc(O)c(O)c1)NCc1cn(C[C@@H]2Cc3c([nH]c4ccccc34)CN2)nn1 | 125 | 140 | 57.54 | > 50 | 130 | 139 | 123.04 | 84.1 | 92.3 | 21.7 | 120 |  |  | 
OC[C@@H]1Cc2c([nH]c3ccccc23)CN1Cc1cn(C[C@@H]2Cc3c([nH]c4ccccc34)CN2)nn1 | 129 | 124 | 93.25 | 16.7 | 131 | 131 | 136.09 | 80.2 | 8.46 | 67.5 | 131 | 66.4 | Active | 
O=c1c(O)c(-c2ccc(O)c(O)c2)oc2cc(O)cc(O)c12 [QUERCETIN] |  |  | 58.37 |  |  |  | 40.43 |  |  |  |  |  |  | 7.94
COC1=C2C[C@@H](C)C[C@H](OC)[C@H](O)[C@@H](C)/C=C(\C)[C@H](OC(N)=O)[C@@H](OC)/C=C\C=C(/C)C(=O)NC(=CC1=O)C2=O [GELDANAMYCIN] |  |  | 59.14 |  |  |  | 55.22 |  |  |  |  |  |  | 
N[C@@H](Cc1c[nH]c2ccccc12)Cn1cc(CNC(=O)/C=C/c2ccc(O)c(O)c2)nn1 | 135 | 140 | 62.21 |  | 133 | 130 | 131.74 | 81.5 | 50.6 | 40 | 129 |  |  | 
N[C@@H](Cc1c[nH]c2ccccc12)Cn1cc(-c2ccc(Cl)c(Cl)c2)nn1 | 116 | 93.8 | 84.13 |  | 139 | 128 | 118.7 | 67.6 | 0 | 61.5 | 108 |  |  | 

— ChEMBL document CHEMBL3875215, “Neuritogenic activity of bi-functional bis-tryptoline triazole” (Bioorg Med Chem, 2017)
